Test results as given in patent US20110009381A1, “SOLUBILIZED THIAZOLOPYRIDINES” (Sirtis Pharmaceuticals, Inc., priority 2007, published 2011).

Molecular target: T1, SIRT1 (Homo sapiens, UniProt Q96EB6)
T1 sequence (Q96EB6 1-747): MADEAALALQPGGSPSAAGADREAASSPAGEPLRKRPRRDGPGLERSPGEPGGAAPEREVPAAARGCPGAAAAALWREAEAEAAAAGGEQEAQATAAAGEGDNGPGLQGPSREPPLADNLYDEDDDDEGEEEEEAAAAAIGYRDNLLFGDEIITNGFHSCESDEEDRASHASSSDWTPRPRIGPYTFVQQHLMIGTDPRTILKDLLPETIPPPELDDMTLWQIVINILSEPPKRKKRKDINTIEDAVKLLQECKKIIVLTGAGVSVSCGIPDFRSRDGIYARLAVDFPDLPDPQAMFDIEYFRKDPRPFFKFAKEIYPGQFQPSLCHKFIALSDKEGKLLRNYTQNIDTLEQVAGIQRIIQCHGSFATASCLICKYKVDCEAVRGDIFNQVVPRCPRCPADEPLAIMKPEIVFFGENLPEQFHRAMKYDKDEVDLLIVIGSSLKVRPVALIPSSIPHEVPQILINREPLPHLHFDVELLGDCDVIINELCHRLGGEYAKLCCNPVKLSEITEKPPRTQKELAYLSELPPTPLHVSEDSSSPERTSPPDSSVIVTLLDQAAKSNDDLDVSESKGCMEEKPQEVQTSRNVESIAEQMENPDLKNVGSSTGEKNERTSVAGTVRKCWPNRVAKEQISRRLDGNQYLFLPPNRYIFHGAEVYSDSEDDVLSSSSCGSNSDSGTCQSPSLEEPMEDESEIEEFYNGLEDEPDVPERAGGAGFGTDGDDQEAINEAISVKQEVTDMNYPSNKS
Assay: Mass spectrometry based assay to identify modulators of SIRT1 activity (deacetylation of p53-based acetylated peptide substrate)
Assay type: biochemical
Conditions: 10 nM SIRT1, 0.5 μM peptide substrate, 120 μM βNAD+, 25 minutes at 25° C.; for EC1.5: SIRT1 activation
Description: A mass spectrometry based assay was used to identify modulators of SIRT1 activity. The mass spectrometry based assay utilizes a peptide having 20 amino acid residues as follows: Ac-EE-K(biotin)-GQSTSSHSK(Ac)NleSTEG-K(5TMR)-EE-NH2 (SEQ ID NO: 1) wherein K(Ac) is an acetylated lysine residue and Nle is a norleucine. The peptide is labeled with the fluorophore 5TMR (excitation 540 nm/emission 580 nm) at the C-terminus. The sequence of the peptide substrate is based on p53 with several modifications. In addition, the methionine residue naturally present in the sequence was replaced with the norleucine because the methionine may be susceptible to oxidation during synthesis and purification.
The mass spectrometry assay is conducted as follows: 0.5 μM peptide substrate and 120 μM βNAD^+ is incubated with 10 nM SIRT1 for 25 minutes at 25° C. in a reaction buffer (50 mM Tris-acetate pH 8, 137 mM NaCl, 2.7 mM KCl, 1 mM MgCl2, 5 mM DTT, 0.05% BSA). Test compounds may be added to the reaction as described above. The SirT1 gene is cloned into a T7-promoter containing vector and transformed into BL21(DE3). After the 25 minute incubation with SIRT1, 10 μL of 10% formic acid is added to stop the reaction. Reactions are sealed and frozen for later mass spec analysis. Determination of the mass of the substrate peptide allows for precise determination of the degree of acetylation (i.e. starting material) as compared to deacetylated peptide (product).
A control for inhibition of sirtuin activity is conducted by adding 1 μL of 500 mM nicotinamide as a negative control at the start of the reaction (e.g., permits determination of maximum sirtuin inhibition). A control for activation of sirtuin activity is conducted using 10 nM of sirtuin protein, with 1 μL of DMSO in place of compound, to determine the amount of deacetylation of the substrate at a given timepoint within the linear range of the assay. This timepoint is the same as that used for test compounds and, within the linear range, the endpoint represents a change in velocity.
For the above assay, SIRT1 protein was expressed and purified as follows. The SirT1 gene was cloned into a T7-promoter containing vector and transformed into BL21(DE3). The protein was expressed by induction with 1 mM IPTG as an N-terminal His-tag fusion protein at 18° C. overnight and harvested at 30,000×g. Cells were lysed with lysozyme in lysis buffer (50 mM Tris-HCl, 2 mM Tris[2-carboxyethyl]phosphine (TCEP), 10 μM ZnCl2, 200 mM NaCl) and further treated with sonication for 10 min for complete lysis. The protein was purified over a Ni-NTA column (Amersham) and fractions containing pure protein were pooled, concentrated and run over a sizing column (Sephadex S200 26/60 global). The peak containing soluble protein was collected and run on an Ion-exchange column (MonoQ). Gradient elution (200 mM-500 mM NaCl) yielded pure protein. This protein was concentrated and dialyzed against dialysis buffer (20 mM Tris-HCl, 2 mM TCEP) overnight. The protein was aliquoted and frozen at −80° C. until further use.
Sirtuin modulating compounds that activated SIRT1 were identified using the assay described above and are shown below in Table 1. The EC1-5 values for the activating compounds are represented by A′ (EC1.5<250 nM), A (EC1.5≧250 nM and ≦1 uM), B (EC1.5>1 and ≦10 uM), or C (EC1.5>10 uM). The percent maximum fold activation is represented by A (Fold activation≧300%), B (Fold Activation≧150% and <300%), or C (Fold Activation<150%).

FOLD ACT. (percent maximum fold activation)	EC1.5	Structure (SMILES)
A (Fold activation≧300%)	A′ (EC1.5<250 nM)	CCN(CC)CCNc1cc(C(=O)Nc2ccccc2-c2nc3cccnc3s2)nc(-c2ccccc2)n1 [Compound 41]
B (Fold Activation≧150% and <300%)	A′ (EC1.5<250 nM)	CN1CCN(c2cc(C(=O)Nc3ccccc3-c3nc4cccnc4s3)nc(-c3ccccc3)n2)CC1=O [Compound 151]
A (Fold activation≧300%)	A′ (EC1.5<250 nM)	CNCCN(C)c1cc(C(=O)Nc2ccccc2-c2nc3cccnc3s2)nc(-c2ccccc2)n1 [Compound 147]
A (Fold activation≧300%)	A′ (EC1.5<250 nM)	CCN(CC)CCCNc1cc(C(=O)Nc2ccccc2-c2nc3cccnc3s2)nc(-c2ccccc2)n1 [Compound 81]
A (Fold activation≧300%)	A′ (EC1.5<250 nM)	O=C(Nc1ccccc1-c1nc2cccnc2s1)c1cc(N2CCCNCC2)nc(-c2ccccc2)n1 [Compound 37]
C (Fold Activation<150%)	C (EC1.5>10 uM)	O=C(Nc1ccccc1-c1nc2cccnc2s1)c1cc(OCCO)nc(-c2ccccc2)n1 [Compound 80]
A (Fold activation≧300%)	A (EC1.5≧250 nM and ≦1 uM)	COCCNc1cc(C(=O)Nc2ccccc2-c2nc3cccnc3s2)nc(-c2ccccc2)n1 [Compound 15]
A (Fold activation≧300%)	A (EC1.5≧250 nM and ≦1 uM)	O=C(Nc1ccccc1-c1nc2cccnc2s1)c1cc(NCc2ccncc2)nc(-c2ccccc2)n1 [Compound 59]
A (Fold activation≧300%)	A′ (EC1.5<250 nM)	O=C(Nc1ccccc1-c1nc2cccnc2s1)c1cc(NCC2CCCNC2)nc(-c2ccccc2)n1 (stereo not drawn) [Compound 109]
A (Fold activation≧300%)	A′ (EC1.5<250 nM)	Cl.O=C(Nc1ccccc1-c1nc2cccnc2s1)c1cc(NCCN2CCCC2)nc(-c2ccccc2)n1 [Compound 62]
A (Fold activation≧300%)	A (EC1.5≧250 nM and ≦1 uM)	COCCN1CCN(c2cc(C(=O)Nc3ccccc3-c3nc4cccnc4s3)nc(OC)n2)CC1 [Compound 5]
A (Fold activation≧300%)	A (EC1.5≧250 nM and ≦1 uM)	CN(C)CCCOc1cc(C(=O)Nc2ccccc2-c2nc3cccnc3s2)nc(-c2ccccc2)n1 [Compound 153]
A (Fold activation≧300%)	A′ (EC1.5<250 nM)	CC(C)N1CCN(c2cc(C(=O)Nc3ccccc3-c3nc4cccnc4s3)nc(-c3ccccc3)c2)CC1 [Compound 123]
A (Fold activation≧300%)	A′ (EC1.5<250 nM)	CS(=O)(=O)CCNc1cc(C(=O)Nc2ccccc2-c2nc3cccnc3s2)nc(-c2ccccc2)n1 [Compound 46]
A (Fold activation≧300%)	A′ (EC1.5<250 nM)	Cc1cccc(-c2nc(NCCN(C)C)cc(C(=O)Nc3ccccc3-c3nc4cccnc4s3)n2)c1 [Compound 112]
A (Fold activation≧300%)	A′ (EC1.5<250 nM)	O=C(Nc1ccccc1-c1nc2cccnc2s1)c1cc(N2CCNCC2)nc(-c2ccccc2)n1 [Compound 1]
A (Fold activation≧300%)	A (EC1.5≧250 nM and ≦1 uM)	COC(=O)CNc1cc(C(=O)Nc2ccccc2-c2nc3cccnc3s2)nc(-c2ccccc2)n1 [Compound 17]
B (Fold Activation≧150% and <300%)	A (EC1.5≧250 nM and ≦1 uM)	CS(=O)(=O)NCCOc1cc(C(=O)Nc2ccccc2-c2nc3cccnc3s2)nc(-c2ccccc2)n1 [Compound 122]
A (Fold activation≧300%)	A′ (EC1.5<250 nM)	O=C(Nc1ccccc1-c1nc2cccnc2s1)c1cc(OC[C@H](O)CO)cc(-c2ccccc2)n1 [Compound 126]
A (Fold activation≧300%)	A′ (EC1.5<250 nM)	Cl.O=C(Nc1ccccc1-c1nc2cccnc2s1)c1cc(NCCN2CCCCC2)nc(-c2ccccc2)n1 [Compound 67]
A (Fold activation≧300%)	A′ (EC1.5<250 nM)	CCS(=O)(=O)CCNc1cc(C(=O)Nc2ccccc2-c2nc3cccnc3s2)nc(-c2ccccc2)n1 [Compound 74]
A (Fold activation≧300%)	A (EC1.5≧250 nM and ≦1 uM)	O=C(Nc1ccccc1-c1nc2ccncc2s1)c1cc(NCc2ccccn2)nc(-c2ccccc2)n1 [Compound 57]
A (Fold activation≧300%)	A′ (EC1.5<250 nM)	O=C(Nc1ccccc1-c1nc2cccnc2s1)c1cc(N2CCOCC2)cc(-c2ccccc2)n1 [Compound 129]
B (Fold Activation≧150% and <300%)	C (EC1.5>10 uM)	CC1(C)OC[C@H](COc2cc(C(=O)Nc3ccccc3-c3nc4cccnc4s3)nc(-c3ccccc3)n2)O1 [Compound 97]
A (Fold activation≧300%)	A′ (EC1.5<250 nM)	COCCN(C)CCOc1cc(C(=O)Nc2ccccc2-c2nc3cccnc3s2)nc(-c2ccccc2)c1 [Compound 50]
A (Fold activation≧300%)	A (EC1.5≧250 nM and ≦1 uM)	Cc1cccc(-c2nc(OC[C@@H](O)CO)cc(C(=O)Nc3ccccc3-c3nc4cccnc4s3)n2)c1 [Compound 142]
A (Fold activation≧300%)	A (EC1.5≧250 nM and ≦1 uM)	CN(C)CCOc1cc(C(=O)Nc2ccccc2-c2nc3cccnc3s2)nc(-c2ccccc2)n1 [Compound 94]
A (Fold activation≧300%)	A′ (EC1.5<250 nM)	COCCN1CCN(c2cc(C(=O)Nc3ccccc3-c3nc4cccnc4s3)nc(-c3ccccc3)c2)CC1 [Compound 124]
A (Fold activation≧300%)	A′ (EC1.5<250 nM)	O=C(Nc1ccccc1-c1nc2cccnc2s1)c1cc(NC2CCN(C3CC3)CC2)nc(-c2ccccc2)n1 [Compound 118]
A (Fold activation≧300%)	A′ (EC1.5<250 nM)	CC(=O)NCCNc1cc(C(=O)Nc2ccccc2-c2nc3cccnc3s2)nc(-c2ccccc2)n1 [Compound 51]
